This passage reports IC50 results from ChEMBL document CHEMBL1148143, “Globulixanthones A and B, two new cytotoxic xanthones with isoprenoid groups from the root bark of Symphonia globulifera” (J Nat Prod, 2002).

Values after ≈ are worked out from the molar mass of the structure shown.

The assay deals with KB. Briefly: Cytotoxicity against human KB cells. The assay is classed as functional, cell-based.

Consider `C=C(C)/C=C/c1cc2c(=O)c3c(O)cccc3oc2c(OC)c1O` [GLOBULIXANTHONE A], for which inhibition was half-maximal at 2.15 µg/mL (≈ 6.63 µM) (IC50). For `CC(C)=CCCC1(C)C=Cc2c(cc(O)c3oc4cccc(O)c4c(=O)c23)O1` (configuration not stated) [GLOBULIXANTHONE B], the IC50 (in general, the point on the concentration scale where inhibition reaches its midpoint) was found to be 1.78 µg/mL (≈ 4.7 µM).
